“And” between values parts separate entries of the source, which are not always exact repeats. Identical values can stand only once.
Assays:
[1] = Clinical features (sedation, amnesia, side effects) after oral midazolam in placebo and piperine pretreatment groups; assay type: in vivo, human; conditions: midazolam 10 mg oral; for End of drug effect / duration of sedation / Onset of drug effect (sedative effect of midazolam): n=20, mean (±SD)
[2] = Midazolam plasma concentration (HPLC) and one-compartment PK after placebo or piperine pretreatment in healthy volunteers
From the text: This was a cross-over controlled study on two groups (n=10) of healthy volunteers. A one-month period was considered as wash out time between two trials. […] Inclusion criteria: being healthy; age ranging 18 to 35; normal diet; not receiving microsomal enzyme inhibitor or inducer agents for at least 7 days before the study; not using black pepper for at least 7 days before the study. Exclusion criteria: age being below 18 and above 35; smocking; pregnancy; metabolic disorders; high pepper diet, receiving enzyme inhibitors or inducers.
Healthy volunteers regardless of gender were randomly divided into two control and piperine receiving groups (n=20 per group). The subject received placebo or piperine (1 capsule 15 mg of piperine daily for 3 days before midazolam) and midazolam (10 mg as an oral single dose) on fourth day of the study. […] Blood samples (maximum 10 ml) were taken at 0.5, 2.5 and 5 hour after midazolam administration. After a month as a wash out period, the treatment program was exchanged between placebo and piperine groups and all steps were done as same as the previous.
Blood samples were transferred into labeled tubes containing Ca-EDTA and shake gently to mix Ca-EDTA with blood for preventing of coagulation.The samples were centrifuged at 3500 ×g for 15 min and supernatant plasma layer transferred into a blank tube. Until the assay of midazolam or diazepam concentration, the plasma samples were kept at −20°C.
For measurement of the drugs concentration, plasma samples were removed from the freezer condition and left in the laboratory to convert from frozen into a liquid sample. Then 0.5 ml of thawed plasma sample was transferred into a capped falcon tube. In the next step, 100 micl of 1 M NaOH and 100 micl isoamyl alcohol were added. After a gently shaking, 4.5 ml of n-hexan was added and shake for 1 minute. The final solutions were centrifuged at 300 ×g for 5 min. After this step, 4.2 ml of supernatant was drawn and transferred into a plastic tube and 100 miclof 0.05 M HCl was added to the solution and centrifuged similar as the previous. Then the supernatant (organic layer) was discarded and the remaining was directly injected into the HPLC.
The separation was carried out at ambient temperature using a single-column isocratic reverse-phase method. The mobile phase consisted of 75% methanol and 25% water. Flow rate was set at 0.8 ml/min. The extracts were detected by UV detector at 242 nm wavelength. Twenty micl of the aqueous layer of final extract was injected into the HPLC using a Hamilton’s syringe. The injection was repeated 3 times for each sample. Peaks area and height were considered for midazolam and diazepam detection and used for calculation of the drugs concentration in the final plasma extract.
The second; pharmacokinetic (PK) parameters such as absorption rate constant (Ka), clearance, half-life and volume of distribution of midazolam in the placebo and piperine groups were calculated based on assumed one-compartment kinetics using P-Pharm software.
Based on non-parametric distribution, data of three concentrations by time were analyzed using Friedman test. Wilcoxon U-test was used for the results of clearance, volume of distribution and half-life of midazolam in piperine group compared to placebo. The difference of the PK parameters between two groups was considered statistically significant at p<0.05.

[3] = piperine 15 mg x 3 days pretreatment
[4] = piperine 15 mg x 3 days pretreatment, of n=20
[5] = placebo pretreatment, midazolam 10 mg oral, n=20

Structure (SMILES): O=C(/C=C/C=C/c1ccc2c(c1)OCO2)N1CCCCC1 [Piperine, piperine]
- Subjects with severe sedation and dizziness [1, 3]: 55%
- End of drug effect / duration of sedation [1, 3]: 188 (±59) min
- Onset of drug effect (sedative effect of midazolam) [1, 3]: 11.75 (±4.9) min
- End of drug effect / duration of sedation ([1]; piperine 15 mg x 3 days pretreatment, listed as piperine): 188 ± 59 min
- Amnesia (frequency, subjects) [1, 4]: 7
- Sedation (frequency, subjects) [1, 4]: 20
- Amnesia (frequency, subjects) ([1]; piperine 15 mg x 3 days pretreatment, of n=20, listed as piperine): Seven
- Subjects with hiccup when receiving midazolam ([1]; piperine 15 mg x 3 days pretreatment, disappeared during first hours): One

Structure (SMILES): Cc1ncc2n1-c1ccc(Cl)cc1C(c1ccccc1F)=NC2 [midazolam]
- AUC(0-t) ([2]; both, human, plasma, po, 10 mg): 411 ± 235 ng·h/mL
- half-life ([2]; both, human, plasma, po, 10 mg): 1.71 h
- Time of maximum plasma midazolam concentration ([2]; placebo group, after midazolam 10 mg oral, population concentration-time curve): 1.5 h
- Kel, elimination rate constant of midazolam (Max) [2, 5]: 0.42
- Kel, elimination rate constant of midazolam (Min) [2, 5]: 0.390
- Kel, elimination rate constant of midazolam (mean) [2, 5]: 0.41
- T1/2, half-life of midazolam (Max) [2, 5]: 1.78 h
- T1/2, half-life of midazolam (Min) [2, 5]: 97.8 min
- Volume (of distribution) of midazolam (Max) [2, 5]: 93.03
- Volume (of distribution) of midazolam (Min) [2, 5]: 87.63
- Volume (of distribution) of midazolam (mean) [2, 5]: 91.44
- Subjects with severe sedation and dizziness ([1]; placebo pretreatment): 30%
- End of drug effect / duration of sedation ([1]; placebo pretreatment): 102±43 min and 102 (±43) min
- Onset of drug effect (sedative effect of midazolam) ([1]; placebo pretreatment): 11.25 (±4.5) min
- Amnesia (frequency, subjects) ([1]; placebo pretreatment, of n=20): 4
